Laboratory results: patent publication US20250248403A1, “COMPOSITION FOR REDUCING AMOUNT OF REACTIVE OXYGEN” (KANEKA CORPORATION, priority 2022, published 2025)

Test system: soybeans (Fukuyutaka)
Assay: Electron transfer rate (ETR) by PAM fluorometry after foliar spraying and paraquat application
Assay type: in vivo, soybean
Details: 24 h after paraquat
Excerpt: In FIG. 1 to FIG. 18 related to the examples, the relative value indicated above each bar chart in each drawing means a relative value when T1 in each drawing is 100. When an X % increase (relative to T2) is indicated above each bar chart in each drawing, it means that the value increases by X % relative to the value of T2 in each drawing. When a Y % decrease (relative to T2) is indicated above each bar chart in each drawing, it means that the value decreases by Y % relative to the value of T2 in each drawing.
A 9 cm poly pot was filled with culture soil and seeded with three soybeans (Fukuyutaka).
After seeding, the soybeans were cultivated in an incubator set in a light period (6:00-18:00, temperature 26° C., illuminance 120 μmol/m^2·s) and a dark period (18:00-6:00, temperature 18° C.). After germination, they were thinned to one plant.
After the first true leaf development, in each of the following treatments, foliar spraying of the following liquid (composition for reducing reactive oxygen) was conducted on each plant (application of the composition for reducing reactive oxygen). Twenty-four hours after the foliar spraying, foliar spraying of a paraquat aqueous solution with SILWET L-77 added to make a 1,000-fold dilution was conducted on each plant, except for a Control (T1) (paraquat application).
Electron transfer rate (ETR) was measured by pulse amplitude modulated fluorometry (PAM fluorometry) twenty-four hours after the paraquat application. In addition, twenty-four hours after the paraquat application, a SPAD value was measured using a chlorophyll meter.
After the first true leaf development, in each of the following treatments, foliar spraying of the following liquid (composition for reducing reactive oxygen) was conducted on each plant (application of the composition for reducing reactive oxygen). Twenty-four hours after the foliar spraying, foliar spraying of a paraquat aqueous solution with SILWET L-77 added to make a 1,000-fold dilution was conducted on each plant, except for the Control (T1) (paraquat application).
ETR was measured by the PAM fluorometry twenty-four hours after the paraquat application. In addition, twenty-four hours after the paraquat application, a SPAD value was measured using a chlorophyll meter.
After seeding, the soybeans were cultivated in an incubator set in a light period (6:00-18:00, temperature 26° C., illuminance 120 μmol/m^2·s)

| Substance | ETR compared with T2 (Experimental Example 4, T3: SL diluted 1000 times, PAR 1496) | ETR compared with T2 (Experimental Example 3, T3: SF diluted 10000 times, PAR 1496) | ETR compared with T2 (Experimental Example 6, T3: SF diluted 10000 times, PAR 1496) | ETR compared with T2 (Experimental Example 9, T3: SF diluted 2000 times, PAR 1455) |
| --- | --- | --- | --- | --- |
| sophorolipid [SL] | slightly increased | – | – | – |
| surfactin Na [SF] | – | slightly increased | slightly increased | significantly increased |
